ChEMBL document CHEMBL5724796, “Tm Shift (DSF) assay results for EUbOPEN Chemogenomics Library” (2024)
Non-standard residues stand in square brackets, D forms with d. Residues, ends and D or L forms follow the SMILES beside them. *: point of attachment. Benzoyl(4-tBu) = CC(C)(C)c1ccc(C(=O)*)cc1; Lys(Et2) = CCN(CC)CCCC[C@H](N)C(=O)O; Nle = CCCC[C@H](N)C(=O)O; Cbz = O=C(OCc1ccccc1)*; Boc = CC(C)(C)OC(=O)*; CH2Cl = ClC*; CH2F = FC*

Legend:
Peregrin (Homo sapiens) = target: T1, Peregrin (Homo sapiens) (UniProt P55201); settings: Compound concentration 20.0 uM
T1 sequence (whole entry): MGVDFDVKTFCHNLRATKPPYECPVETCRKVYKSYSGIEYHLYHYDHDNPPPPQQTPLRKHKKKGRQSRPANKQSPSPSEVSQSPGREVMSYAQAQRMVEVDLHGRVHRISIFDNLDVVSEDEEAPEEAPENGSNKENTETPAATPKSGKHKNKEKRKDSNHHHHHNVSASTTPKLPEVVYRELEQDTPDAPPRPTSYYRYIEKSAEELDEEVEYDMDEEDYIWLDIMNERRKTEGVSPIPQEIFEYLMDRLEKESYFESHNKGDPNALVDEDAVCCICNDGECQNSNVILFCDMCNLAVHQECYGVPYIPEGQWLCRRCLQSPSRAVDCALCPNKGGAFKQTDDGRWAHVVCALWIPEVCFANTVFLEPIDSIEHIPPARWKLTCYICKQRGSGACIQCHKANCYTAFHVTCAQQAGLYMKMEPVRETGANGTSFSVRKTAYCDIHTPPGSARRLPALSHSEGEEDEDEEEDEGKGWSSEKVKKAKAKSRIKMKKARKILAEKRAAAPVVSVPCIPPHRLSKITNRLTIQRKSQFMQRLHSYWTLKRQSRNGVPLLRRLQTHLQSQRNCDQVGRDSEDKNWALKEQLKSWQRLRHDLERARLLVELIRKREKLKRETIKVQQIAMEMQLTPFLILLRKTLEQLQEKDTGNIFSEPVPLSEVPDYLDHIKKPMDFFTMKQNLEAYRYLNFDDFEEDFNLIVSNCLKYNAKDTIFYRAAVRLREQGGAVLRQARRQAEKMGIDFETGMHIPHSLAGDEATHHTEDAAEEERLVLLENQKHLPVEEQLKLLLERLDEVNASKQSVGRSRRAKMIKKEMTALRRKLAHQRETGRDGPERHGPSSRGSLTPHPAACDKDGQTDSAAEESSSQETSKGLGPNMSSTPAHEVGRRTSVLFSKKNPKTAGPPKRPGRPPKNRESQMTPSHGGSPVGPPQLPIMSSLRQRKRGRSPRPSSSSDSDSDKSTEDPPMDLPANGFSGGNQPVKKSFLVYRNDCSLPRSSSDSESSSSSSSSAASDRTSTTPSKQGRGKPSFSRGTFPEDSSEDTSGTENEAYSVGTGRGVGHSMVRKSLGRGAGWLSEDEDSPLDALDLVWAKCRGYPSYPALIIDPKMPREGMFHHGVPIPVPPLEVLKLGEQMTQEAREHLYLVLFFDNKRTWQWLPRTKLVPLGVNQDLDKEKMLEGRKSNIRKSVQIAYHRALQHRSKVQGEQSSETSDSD

[1] = target: Fibroblast growth factor receptor 2 (Homo sapiens) (UniProt P21802); settings: Compound concentration 20.0 uM
Fibroblast growth factor receptor 2 (Homo sapiens), sequence (P21802 22-821 limits assumed): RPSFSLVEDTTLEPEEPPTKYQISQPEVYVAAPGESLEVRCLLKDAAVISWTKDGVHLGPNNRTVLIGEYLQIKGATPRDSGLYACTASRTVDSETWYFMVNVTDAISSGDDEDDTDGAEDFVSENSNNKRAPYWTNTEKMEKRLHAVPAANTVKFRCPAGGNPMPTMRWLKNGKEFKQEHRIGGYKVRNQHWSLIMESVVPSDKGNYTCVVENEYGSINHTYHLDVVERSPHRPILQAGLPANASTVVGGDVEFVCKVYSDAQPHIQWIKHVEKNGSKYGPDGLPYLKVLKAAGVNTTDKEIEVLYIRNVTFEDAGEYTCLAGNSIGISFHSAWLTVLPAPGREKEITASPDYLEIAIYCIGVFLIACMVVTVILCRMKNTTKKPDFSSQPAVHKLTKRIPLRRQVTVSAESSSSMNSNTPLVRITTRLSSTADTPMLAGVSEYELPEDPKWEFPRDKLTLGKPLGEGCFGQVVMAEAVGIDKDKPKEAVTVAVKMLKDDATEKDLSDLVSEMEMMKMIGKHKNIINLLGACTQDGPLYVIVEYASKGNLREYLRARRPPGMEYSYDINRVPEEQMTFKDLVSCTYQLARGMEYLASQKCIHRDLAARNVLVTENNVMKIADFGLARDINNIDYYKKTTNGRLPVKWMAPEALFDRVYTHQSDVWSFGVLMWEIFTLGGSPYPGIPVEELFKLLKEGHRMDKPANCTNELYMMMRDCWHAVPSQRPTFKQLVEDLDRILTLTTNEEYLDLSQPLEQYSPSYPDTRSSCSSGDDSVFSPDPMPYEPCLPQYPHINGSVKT
Description: Thermal Shift Assay. Domain: start/stop: T457-E768

N[C@H]1CC[C@H](N[C@@H]2C[C@H]2c2ccccc2)CC1
ΔTm (Peregrin (Homo sapiens)): 1.23 °C
ΔTm [1]: 0.55 °C

O=C1/C(=N/Nc2ccc(S(=O)(=O)O)cc2)C(c2ccc([N+](=O)[O-])cc2)=NN1c1ccccc1
ΔTm (Peregrin (Homo sapiens)): 0.37 °C
ΔTm [1]: 0.4 °C

Cc1cc(C)cc(Oc2ccc(CNC(=O)[C@H](C)N)cc2C)c1
ΔTm (Peregrin (Homo sapiens)): -1.68 °C
ΔTm [1]: 0.01 °C

Cc1cnc(-c2ccccc2C(C)C)nc1NCc1ccc(-n2ccnn2)cc1
ΔTm (Peregrin (Homo sapiens)): -1.14 °C
ΔTm [1]: -0.47 °C

O=C(COc1ccc(-c2oc3cc(O)c(C(=O)O)cc3c2C#Cc2cccc(Cl)c2)cc1)NC1CC1
ΔTm (Peregrin (Homo sapiens)): -1.44 °C
ΔTm [1]: 0.52 °C

CCS(=O)(=O)N1CCC([C@@H](C)n2c(C)c(C(=O)NCc3c(OC)cc(C)[nH]c3=O)c3ccccc32)CC1
ΔTm (Peregrin (Homo sapiens)): -1.1 °C
ΔTm [1]: 0.02 °C

NC(=O)C(CCCN=C(N)CCl)NC(=O)c1ccccc1 (configuration not stated)
ΔTm (Peregrin (Homo sapiens)): 1.58 °C
ΔTm [1]: -0.58 °C

CCc1oc2ccccc2c1C(=O)c1cc(Br)c(O)c(Br)c1
ΔTm (Peregrin (Homo sapiens)): -11 °C
ΔTm [1]: -1.86 °C

C=CCn1c(N[C@@H]2C[C@H](c3ccc(OCc4ccccc4)cc3)CN(C)C2)nc2cc[nH]c2c1=O
ΔTm (Peregrin (Homo sapiens)): 3.96 °C
ΔTm [1]: 0.37 °C

O=C(NC(Cc1ccccc1)C(=O)NC(Cc1ccccc1)C(=O)CF)OCc1ccccc1 (stereo not drawn) (Cbz-Phe-Phe-CH2F; configuration not given here)
ΔTm (Peregrin (Homo sapiens)): 1.77 °C
ΔTm [1]: 0.39 °C

CCS(=O)(=O)Cc1cnc(Oc2ccc(F)cc2F)c(-c2cc(C)c3c(=O)[nH]ccn23)c1
ΔTm (Peregrin (Homo sapiens)): 2.87 °C
ΔTm [1]: 0.35 °C

CC(C)(C)OC(=O)N1CCC[C@H]1C(=O)N1CCC[C@H]1C=O (Boc-Pro-Pro-aldehyde)
ΔTm (Peregrin (Homo sapiens)): -0.14 °C
ΔTm [1]: 0.01 °C

Nc1ncnc2c1ncn2[C@@H]1O[C@H](C(=O)N2CCN(CC(=O)Nc3cccc4c3CNC4=O)CC2)[C@@H](O)[C@H]1O
ΔTm (Peregrin (Homo sapiens)): -1.21 °C
ΔTm [1]: 0.74 °C

N#C[C@@H]1C[C@@H]2C[C@@H]2N1C(=O)[C@@H](N)C12CC3CC(CC(O)(C3)C1)C2
ΔTm (Peregrin (Homo sapiens)): -0.63 °C
ΔTm [1]: 0.29 °C

CC(=O)N[C@@H](CC(C)C)C(=O)N[C@@H](CCC(=O)O)C(=O)N[C@@H](Cc1cnc[nH]1)C(=O)N[C@@H](CC(=O)O)C(=O)CCl (Ac-LEHD-CH2Cl)
ΔTm (Peregrin (Homo sapiens)): -1.13 °C
ΔTm [1]: 0.65 °C

CCn1c(=S)[nH]c2cc3c(NCc4ccccc4N4CCC(CO)CC4)ncnc3cc21
ΔTm (Peregrin (Homo sapiens)): 1.64 °C
ΔTm [1]: -0.06 °C

O=C(NNc1ccccn1)c1ccccn1
ΔTm (Peregrin (Homo sapiens)): 0.74 °C
ΔTm [1]: 0.02 °C

CC(C)c1ccc(-c2cc(=O)c3ccccc3o2)cc1
ΔTm (Peregrin (Homo sapiens)): -0.32 °C
ΔTm [1]: -0.13 °C

CN1Cc2c(Cl)cc(Cl)cc2[C@H](c2cccc(S(=O)(=O)NCCOCCOCCNC(=O)NCCCCNC(=O)NCCOCCOCCNS(=O)(=O)c3cccc([C@@H]4CN(C)Cc5c(Cl)cc(Cl)cc54)c3)c2)C1
ΔTm (Peregrin (Homo sapiens)): 0.43 °C
ΔTm [1]: -0.42 °C

N#Cc1c(N)[nH]c2cc(/C=C/c3cccc(F)c3)ccc12
ΔTm (Peregrin (Homo sapiens)): 6.38 °C
ΔTm [1]: 1.59 °C

C[C@H](c1nc2c(cnn2C2CCOCC2)c(=O)[nH]1)N1CC(Oc2ccccc2)C1
ΔTm (Peregrin (Homo sapiens)): 2.25 °C
ΔTm [1]: -0.05 °C

CCNC(=O)c1cc2c(-c3cc(C(C)(C)O)ccc3Oc3c(C)cc(F)cc3C)cn(C)c(=O)c2[nH]1
ΔTm (Peregrin (Homo sapiens)): 1.94 °C
ΔTm [1]: 0.28 °C

CCN(CC)CCCC[C@H](NC(=O)[C@H](CC(C)C)NC(=O)[C@H](C)NC(=O)[C@H](Cc1ccccc1)NC(=O)c1ccc(C(C)(C)C)cc1)C(=O)N[C@@H](CO)C(=O)OC ({Benzoyl(4-tBu)}-FAL[Lys(Et2)]S-OMe)
ΔTm (Peregrin (Homo sapiens)): -1.51 °C
ΔTm [1]: 0.43 °C

CC(C)(O)c1ccc(N2Cc3c(ccnc3-c3ccc(F)cc3OCC(F)(F)F)C2=O)cc1
ΔTm (Peregrin (Homo sapiens)): -1.27 °C
ΔTm [1]: -4.87 °C

CC1(C)c2cccc(C(=O)NO)c2CN1c1cnc(C(F)(F)F)cn1
ΔTm (Peregrin (Homo sapiens)): 0.66 °C
ΔTm [1]: 0.83 °C

CNC(=O)c1cnc(N2CCC[C@H](N)C2)nc1Nc1cc(C(C)C)nc(C(C)C)c1
ΔTm (Peregrin (Homo sapiens)): -0.82 °C
ΔTm [1]: -3.52 °C

COc1cc(Oc2ccnc3cc(OC)c(OC)cc23)ccc1NC(=O)NC(C)c1nccs1 (configuration not stated)
ΔTm (Peregrin (Homo sapiens)): -1.23 °C
ΔTm [1]: -3.29 °C

Cn1cc(NC(=O)c2cc(F)cc(F)c2)c(C(=O)NC2CCNCC2)n1
ΔTm (Peregrin (Homo sapiens)): -1.44 °C
ΔTm [1]: 0.66 °C

CC(C)(C)OC(=O)N1CCN(C(=O)n2cc(-c3ccc(OC(F)(F)F)cc3)nn2)C(Cc2ccccc2)C1 (configuration not stated)
ΔTm (Peregrin (Homo sapiens)): 0.21 °C
ΔTm [1]: -0.77 °C

O=C1c2ccccc2C(=O)c2oc(-c3cccnc3)nc21
ΔTm (Peregrin (Homo sapiens)): 2.45 °C
ΔTm [1]: -0.95 °C

O=S(=O)(CSc1nnc(Br)n1Cc1ccc(Br)c2ccccc12)Nc1cccnc1
ΔTm (Peregrin (Homo sapiens)): 1.59 °C
ΔTm [1]: -0.32 °C

CC(C)c1cc(C(=O)N2Cc3ccc(CN4CCN(C)CC4)cc3C2)c(O)cc1O
ΔTm (Peregrin (Homo sapiens)): -1.35 °C
ΔTm [1]: 0.44 °C

Nc1ncnc2c1c(I)cn2[C@@H]1O[C@H](CO)[C@@H](O)[C@H]1O
ΔTm (Peregrin (Homo sapiens)): 2.98 °C
ΔTm [1]: 2.17 °C

C[C@@H](COCCC(=O)N1CCN(c2ncc(C(F)(F)F)cn2)CC1)Nc1cn[nH]c(=O)c1C(F)(F)F
ΔTm (Peregrin (Homo sapiens)): 0.01 °C
ΔTm [1]: 0.24 °C

COC(=O)[C@H]1[C@H]2C[C@@H]3c4[nH]c5cc(OC)ccc5c4CCN3C[C@H]2C[C@@H](OC(=O)c2cc(OC)c(OC)c(OC)c2)[C@@H]1OC
ΔTm (Peregrin (Homo sapiens)): 0.08 °C
ΔTm [1]: -0.07 °C

CCCC[C@@H](C=O)NC(=O)[C@H](CC(C)C)NC(=O)[C@H](CC(C)C)NC(C)=O (Ac-Leu-Leu-[Nle]-aldehyde)
ΔTm (Peregrin (Homo sapiens)): -1.4 °C
ΔTm [1]: 0.84 °C

Cc1nc(-c2cnn(C)c2-c2ccc(C(F)(F)F)cn2)c2c(N3CCC3)ncnn12
ΔTm (Peregrin (Homo sapiens)): 0.67 °C
ΔTm [1]: 0.06 °C

COc1ccc(-n2c(SCCCN3C(=O)c4cccc5cccc(c45)C3=O)nnc2-c2ccncc2)cc1
ΔTm (Peregrin (Homo sapiens)): 0.39 °C
ΔTm [1]: 0.21 °C

C[C@@H]1CN(c2nccc(Nc3ccc4c(c3)n(CCC(C)(C)O)c(=O)n4C)n2)C[C@H](C)C1(F)F
ΔTm (Peregrin (Homo sapiens)): -0.49 °C
ΔTm [1]: -0.7 °C

CCCNC(=O)[C@H]1O[C@@H]1C(=O)N[C@H](C(=O)N1CCC[C@H]1C(=O)O)[C@@H](C)CC
ΔTm (Peregrin (Homo sapiens)): -2.2 °C
ΔTm [1]: 0.07 °C

COc1ccc(CNc2nc(N3CCC[C@H]3CO)ncc2C(=O)NCc2ncccn2)cc1Cl
ΔTm (Peregrin (Homo sapiens)): 0.12 °C
ΔTm [1]: -0.2 °C

CC(C)Oc1ccc2c(=O)[nH]c3sccc3c2c1
ΔTm (Peregrin (Homo sapiens)): -0.93 °C
ΔTm [1]: 0.02 °C

C=Cc1cc(C(=O)Nc2ccc(C(=N)N)cc2)c(-c2ccc(C(=O)NCC3CC3)nc2C(=O)O)cc1OC
ΔTm (Peregrin (Homo sapiens)): 2.91 °C
ΔTm [1]: 0.02 °C

COc1ccc(-c2ccc(-c3cn(C(=O)N4CCCCC4c4ccccc4)nn3)cc2)cc1 (configuration not stated)
ΔTm (Peregrin (Homo sapiens)): -1.62 °C
ΔTm [1]: 0.03 °C

CS(=O)(=O)c1ccc(Oc2cc(F)cc(C#N)c2)c2c1[C@H](O)[C@H](F)[C@@H]2F
ΔTm (Peregrin (Homo sapiens)): 2.16 °C
ΔTm [1]: 0.61 °C

C/C=C1\NC(=O)[C@H]2CSSCC/C=C/[C@H](CC(=O)N[C@H](C(C)C)C(=O)N2)OC(=O)[C@H](C(C)C)NC1=O
ΔTm (Peregrin (Homo sapiens)): 0 °C
ΔTm [1]: 0.1 °C

CC(=O)N[C@@H](Cc1ccc(O)cc1)C(=O)N[C@H](C(=O)N[C@@H](C)C(=O)N[C@@H](CC(=O)O)C(=O)COC(=O)c1c(C)cccc1C)C(C)C
ΔTm (Peregrin (Homo sapiens)): -1.58 °C
ΔTm [1]: 0.82 °C

CC(C)n1nc(-c2cc3cc(O)ccc3[nH]2)c2c(N)ncnc21
ΔTm (Peregrin (Homo sapiens)): 1.52 °C
ΔTm [1]: 4.67 °C

Cc1ccc(N2C(=O)/C(=C/C=C/c3ccco3)C(=O)NC2=S)cc1Cl
ΔTm (Peregrin (Homo sapiens)): -2.31 °C
ΔTm [1]: -1.72 °C

COc1cc2c(NC3CCN(C)CC3)nc(N3CCCN(C)CC3)nc2cc1OCCCN(C)C
ΔTm (Peregrin (Homo sapiens)): -1.21 °C
ΔTm [1]: 0.15 °C

C[C@@H]1CN(c2ncc(Cl)c(Nc3ccc4c(c3)n(CCC(C)(C)O)c(=O)n4C)n2)C[C@H](C)C1(F)F
ΔTm (Peregrin (Homo sapiens)): -5.71 °C
ΔTm [1]: -3.16 °C
